Reference: BigSolDB 2.1

Cn1c([N+](=O)[O-])cnc1N1CCN(S(C)(=O)=O)C1=O
solubility (mole fraction)
Settings | 293.2 K | 298.2 K | 303.2 K | 308.2 K | 313.2 K
in 1,4-butanediol | 0.000939 | 0.00132 | 0.00176 | 0.0024 | 0.00315
in 1,4-dioxane | 0.00814 | 0.0106 | 0.0127 | 0.0158 | 0.0189
in DMAc | 0.0363 | 0.0481 | 0.0617 | 0.0765 | 0.0963
in DMF | 0.0406 | 0.0542 | 0.0683 | 0.083 | 0.103
in DMSO | 0.057 | 0.0702 | 0.085 | 0.0987 | 0.114
in NMP | 0.0796 | 0.116 | 0.181 | 0.262 | 0.366
in ethanol | 0.000378 | 0.00048 | 0.000582 | 0.000726 | 0.000851
in ethylene glycol | 0.000879 | 0.00149 | 0.00228 | 0.00358 | 0.00558
in formamide | 0.0476 | 0.0591 | 0.0771 | 0.0938 | 0.109
in glycerin | 0.000743 | 0.000861 | 0.000984 | 0.00114 | 0.00128
in isopropanol | 0.000315 | 0.000368 | 0.000447 | 0.000527 | 0.000659
in methanol | 0.000481 | 0.000539 | 0.000624 | 0.000739 | 0.000871
in n-propanol | 0.000356 | 0.000436 | 0.000541 | 0.000673 | 0.000832
in propylene glycol | 0.00136 | 0.00232 | 0.00347 | 0.00538 | 0.00836
in water | 2.86e-06 | 3.21e-06 | 3.66e-06 | 4.24e-06 | 5.06e-06

Settings | solubility (mole fraction)
in PEG-200, 293.2 K | 0.00829
in PEG-200, 298.2 K | 0.011
in PEG-200, 303.2 K | 0.0153
in PEG-200, 308.2 K | 0.0205
in PEG-200, 313.2 K | 0.0271
in PEG-400, 293.2 K | 0.0123
in PEG-400, 298.2 K | 0.0176
in PEG-400, 303.2 K | 0.0247
in PEG-400, 308.2 K | 0.0343
in PEG-400, 313.2 K | 0.0462
in PEG-600, 293.2 K | 0.015
in PEG-600, 298.2 K | 0.0218
in PEG-600, 303.2 K | 0.0302
in PEG-600, 308.2 K | 0.0429
in PEG-600, 313.2 K | 0.058
